According to US20050159359A1, “Methods and compositions for derepression of IAP-inhibited caspase” (The Burnham Institute, priority 2001, published 2005):
Where no end group is shown, it is not given here. [ ]: non-standard residue; d: D form. The star is where a group is joined. Phe(4-Cl) = N[C@@H](Cc1ccc(Cl)cc1)C(=O)O; dPhe(4-Cl) = N[C@H](Cc1ccc(Cl)cc1)C(=O)O; dPhe(4-F) = N[C@H](Cc1ccc(F)cc1)C(=O)O; 2Nal = N[C@@H](Cc1ccc2ccccc2c1)C(=O)O; d2Nal = N[C@H](Cc1ccc2ccccc2c1)C(=O)O; Fmoc = O=C(OCC1c2ccccc2-c2ccccc21)*; 2Thi = N[C@@H](Cc1cccs1)C(=O)O

How the values were obtained:
full length XIAP = full length XIAP (Homo sapiens, UniProt P98170); assay: SMAC competition assay: rhodamine labeled SMAC tetrapeptide AVPI and full length XIAP; settings: for EC50: amount of compound necessary to restore Caspase-3 activity to 50% of Vmax; for Relative Potency: fold relative to SMAC AVPI tetrapeptide
[1] = tested on: normal bone marrow mononuclear cells; assay: Toxicity to normal bone marrow mononuclear cells, Annexin V flow cytometry; format: cell-based; settings: same culture conditions as Jurkat killing; 5 μM, 20 hours
Experimental: A comparison of the effects of TPI1396-34 on normal bone marrow cells versus Jurkat leukemia cells was performed as follows. TPI1396-34 (5 μM) was incubated with Jurkat cells or normal bone marrow mononuclear cells (6.25×10^5/mL) in RPMI and 2.5% FBS for 20 hours. After incubation, cells were washed, stained with FITC-conjugated Annexin V antibody and propidium iodide, and fluorescence measured by flow cytometry as described above.

[2] = tested on: U937 leukemia cells (U937-Neo, U937-XIAP); assay: Apoptosis in U937 cells transfected with Neo-control or XIAP plasmid; format: cell-based; settings: U937-XIAP vs U937-Neo, 5 or 8 μM, 20 hours
Experimental: After incubation, cells were washed, stained with FITC-conjugated Annexin V antibody and propidium iodide, and fluorescence measured by flow cytometry as described in Example X.

HeLa cells = assay: Apoptosis in HeLa cells transfected with XIAP, XIAP mutants or Bcl-XL, Annexin V; format: cell-based; settings: 5 μM, 20 hours
Experimental: In addition to transfecting the cells with full-length XIAP, analogous assays were performed with HeLa cells transfected with plasmids over-expressing various XIAP mutants. […] The mutant was produced by site-directed mutagenesis to modify positions 148, 219, 223, 314 and 323 to contain alanine. HeLa cells were also transiently transfected with plasmids encoding Bcl-XL, an anti-apoptotic protein that operates upstream of Caspases to suppress Cytochrome C release from mitochondria. HeLa cells (2.5×10^5) were seeded onto six well plates in 2 mL DMEM H21 with 5% FBS. After 24 hrs, cells were transfected (Gene Porter) with plasmids. At 48 hrs after transfection, cells were treated with 5 μM of TPI1396-34 for 20 hours. Both floating and adherent cells were then recovered from cultures, washed, and apoptosis was determined by Annexin V staining using flow cytometry.

[3] = tested on: ALVA31 prostate cancer cells; assay: ALVA31 cell viability (XTT dye-reduction and trypan blue dye exclusion); format: cell-based; settings: IAP antagonist 40 μM or VP-16 100 μM, 24 hrs
Experimental: The in vivo effects of TPI792-33 or TPI792-35, either individually or in combination with the cytotoxic anticancer drug VP-16 (etoposide), on derepression of XIAP-inhibited caspase and viability of ALVA31 cells was determined as follows. ALVA31 prostate cancer cells were seeded onto 96 well plates (10^4 cells/well) in 100 μL RPMI containing 2.5% fetal bovine serum (FBS). […] After another 24 hrs incubation, cell viability was measured by the XTT dye-reduction assay (Roche, Molecular Biochemicals; Indianapolis, Ind.) and trypan blue dye exclusion assay.

XIAP-inhibited caspase-3 = XIAP-inhibited caspase-3 (Homo sapiens, UniProt P98170); assay: IAP derepression assay: Ac-DEVD-AFC hydrolysis by caspase-3 in presence of GST-XIAP; format: biochemical; settings: tested at 0.4, 2, 10 and 50 micrograms per milliliter
Experimental: Caspase activity was assayed by release of −7-amino-4-trifluoromethyl-coumarin (AFC) from Ac-DEVD-AFC synthetic peptides using a Molecular Devices Spectromax 340 (see Zhou et al., J. Biol. Chem. 272: 7797-7800 (1997)). […] The ratio of Vmax for hydrolysis of Ac-DEVD-AFC in the presence and absence of the candidate mixture was calculated and used to identify those that contain an agent that derepresses an IAP-inhibited caspase.
Screening of each mixture from the DCR390, TPI1239 or TPI1328 library, respectively, using the above described assay was carried out as follows. Each mixture was aliquoted in a 25 microliter volume and in duplicate to a well of a 96 well microtiter plate. […] Fluorescence of liberated AFC was immediately detected from each well for 30 minutes at 30 second intervals. The Vmax for hydrolysis of AC-DEVD-AFC from each well was measured using the softmax software package.

[4] = Jurkat cell killing, Annexin V / propidium iodide flow cytometry; format: cell-based; settings: human
Experimental: The following assay was used to test the ability of individual compounds from the TPI1396 and TPI1391 libraries to induce apoptosis of cultured tumor cell lines. Each of the compounds listed in Table IX was individually added to Jurkat leukemia cells (6.25×10^5 cells/mL) in RPMI containing 2.5% FBS at various concentrations for 20 hours. After incubation, cells were washed and stained with FITC-conjugated Annexin V antibody and propidium iodide (Biovision; Mountain View, Calif.). Cells were incubated for 20 minutes at room temperature in the dark and fluorescence was measured by flow cytometry (FACScan, Immunocytometry system; Becton-Dickinson; San Jose, Calif.). Cells staining positive for Annexin V were deemed non-viable.
The TPI1396-34 and TPI1391-28 compounds were further tested as set forth below.

caspase-3 and -7 = settings: read-out: Ki for inhibition of caspase-3 and -7; reported; cited from earlier work

Sequence of XIAP-inhibited caspase-3 (P98170 whole entry): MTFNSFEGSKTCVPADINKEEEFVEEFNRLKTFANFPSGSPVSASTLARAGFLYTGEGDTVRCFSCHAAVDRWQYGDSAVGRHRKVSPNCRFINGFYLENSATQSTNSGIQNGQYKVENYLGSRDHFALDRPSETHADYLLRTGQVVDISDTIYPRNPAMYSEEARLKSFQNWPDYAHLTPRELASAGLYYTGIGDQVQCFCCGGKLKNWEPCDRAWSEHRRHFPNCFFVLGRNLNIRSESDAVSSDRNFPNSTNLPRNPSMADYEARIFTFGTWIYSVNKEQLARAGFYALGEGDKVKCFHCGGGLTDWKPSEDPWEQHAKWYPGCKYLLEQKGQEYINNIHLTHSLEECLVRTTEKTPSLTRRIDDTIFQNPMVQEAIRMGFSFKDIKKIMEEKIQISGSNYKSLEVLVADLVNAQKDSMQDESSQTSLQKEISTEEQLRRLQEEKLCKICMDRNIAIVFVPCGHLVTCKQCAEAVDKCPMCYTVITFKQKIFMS
Sequence of full length XIAP (P98170 whole entry): as above

In the case of `CCCCCCCN1C(=O)C(=O)N([C@H](CCCC)CNCc2ccccc2)C[C@@H]1Cc1ccc2ccccc2c1` [TPI1391-21], the EC50 (full length XIAP) is reported as 37 µM and the “Relative Potency” value (full length XIAP) is reported as 3.4.
For `CC(C)C[C@@H]1CN([C@H](CNCc2ccccc2)Cc2ccc3ccccc3c2)C(=O)C(=O)N1CCc1cccc(C(F)(F)F)c1` [TPI1391-28], the “toxicity to normal bone marrow cells” value [1] was “little toxicity” and the “Relative Potency” value (full length XIAP) was 4.8.
With `COc1ccc(CCN2CCC[C@@H]2CN(C(=O)Nc2ccccc2)[C@@H](CNC(=O)Nc2ccccc2)CC2CCCCC2)cc1` [TPI1396-34] the “toxicity to normal bone marrow cells” value [1] was “little toxicity”, the “effect of XIAP over-expression on apoptosis induction” value [2] was “resistant” and the apoptosis (HeLa cells; HeLa expressing XIAP mutant with mutated SMAC-binding pocket) was “not protected”. For the same molecule, the apoptosis (HeLa cells; HeLa expressing mutant of only the BIR2 domain) was “not protected”, the apoptosis (HeLa cells; HeLa expressing the BIR3 domain) was “protected” and the apoptosis (HeLa cells; HeLa over-expressing Bcl-XL) was “not blocked”. The apoptosis (HeLa cells; HeLa over-expressing full-length XIAP) was “protected”, the apoptosis (HeLa cells; HeLa transfected with control vector) was “induced apoptosis” and the EC50 (full length XIAP) was 33 µM.
With `COc1cc([C@@H]2c3cc4c(cc3[C@@H](O[C@@H]3O[C@@H]5CO[C@@H](C)O[C@H]5[C@H](O)[C@H]3O)[C@H]3COC(=O)[C@H]23)OCO4)cc(OC)c1O` [VP-16, etoposide] the “effect on viability of ALVA31 cells, agent alone” value [3] was “essentially no effect”.
In the case of “(D-Nal)-(D-pClPhe)-(L-pClPhe)-(Lys-εFmoc) ([d2Nal][dPhe(4-Cl)][Phe(4-Cl)]K(Fmoc)) [TPI792-9]”, the “LC (lowest concentration with a ratio of 2 or higher in the derepression assay)” value (XIAP-inhibited caspase-3) is reported as 10 µg/mL.
In the case of “(D-Nal)-(L-Nal)-(D-Lys-εFmoc)-(Lys-εFmoc) ([d2Nal][2Nal][dK](Fmoc)K(Fmoc)) [TPI792-17]”, the “LC (lowest concentration with a ratio of 2 or higher in the derepression assay)” value (XIAP-inhibited caspase-3) is reported as 2 µg/mL.
In the case of “(D-Nal)-(L-Nal)-(L-pClPhe)-(Lys-εFmoc) ([d2Nal][2Nal][Phe(4-Cl)]K(Fmoc); also: 4: D-Lys-εFmoc in Table V) [TPI792-15]”, the “LC (lowest concentration with a ratio of 2 or higher in the derepression assay)” value (XIAP-inhibited caspase-3) is reported as 2 µg/mL.
For “(D-Nal)-(Lys-εFmoc)-(L-pClPhe)-(Lys-εFmoc) ([d2Nal]K(Fmoc)[Phe(4-Cl)]K(Fmoc); not fully specified; printed as (D-Nal)-(Lys-εFmoc)-(L-pClPhe)-(Lys-εFmoc)) [TPI792-3]”, the “LC (lowest concentration with a ratio of 2 or higher in the derepression assay)” value (XIAP-inhibited caspase-3) was 2 µg/mL.
For “(L-ThiAla)-(D-pClPhe)-(L-pClPhe)-(Lys-εFmoc) ([2Thi][dPhe(4-Cl)][Phe(4-Cl)]K(Fmoc)) [TPI792-27]”, the “LC (lowest concentration with a ratio of 2 or higher in the derepression assay)” value (XIAP-inhibited caspase-3) was 2 µg/mL.
In the case of “(L-ThiAla)-(Lys-εFmoc)-(D-Nal)-(Lys-εFmoc) ([2Thi]K(Fmoc)[d2Nal]K(Fmoc)) [TPI792-19]”, the “LC (lowest concentration with a ratio of 2 or higher in the derepression assay)” value (XIAP-inhibited caspase-3) is reported as 2 µg/mL.
In the case of “(L-ThiAla)-(Lys-εFmoc)-(L-pClPhe)-(pF-D-F) ([2Thi]K(Fmoc)[Phe(4-Cl)][dPhe(4-F)]) [TPI792-22]”, the “LC (lowest concentration with a ratio of 2 or higher in the derepression assay)” value (XIAP-inhibited caspase-3) is reported as 2 µg/mL.
Work on “H-AVPIAQK-NH2 [SMAC, H-Ala-Val-Pro-Ile-Ala-Gln-Lys-NH2]” yielded a percent nonviable cells at 20 hours, 50 µM ([4]; 50 μM) of roughly 16% and a percent nonviable cells at 20 hours, 100 µM ([4]; 100 μM) of 15%.
In the case of “cIAP2: cellular IAP protein, human inhibitor of apoptosis protein”, the Ki (caspase-3 and -7) is listed as 0.0002 to 0.01 µM.
